What all share (assay): NCI anticancer screen, dose series, 48 h
Test [1] has as its system BT-549 breast.
Test [2] relates to DU-145 prostate.
In test [3] the test system is HOP-92 NSCLC.
The test system of test [4] is HS 578T breast.
Test [5] deals with MCF7 breast.
Test [6] relates to OVCAR-4 ovarian.
The test system of test [7] is RXF 393 renal.
Test [8] deals with SNB-19 CNS.
In test [9] the test system is TK-10 renal.
The subject of test [10] is UACC-257 melanoma.

Where “and” joins values, the source holds several entries; their conditions need not be identical. Identical values can stand only once.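 48-hour exposure; five concentrations; linearly interpolated endpoints. Here, GI50 denotes the concentration required for 50% inhibition of growth. TGI is the concentration that stops growth completely.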 Some results are limits rather than exact numbers.

As to `CN(C)CCCCC(C(=O)CBr)(c1ccccc1)c1ccccc1`, the GI50 was 1.48 µM in [1]; 1.66 µM in [2]; 1.84 µM in test [3]; 3.11 µM in [4]; 1.5 µM in [5]; 1.54 µM in test [6]. Moreover, the GI50 in [7] was 1.74 µM; in [8], 7.43 µM; in test [9], 1.5 µM; in test [10], 1.96 µM. The TGI was determined as 3.47 µM in test [1]; 3.63 µM in test [2]; 4.71 µM in test [3]; 22.7 µM in [4]; 3.25 µM in test [5]; 7.88 µM in [6]. Moreover, the TGI came to 4.06 µM in [7], 23.9 µM in [8], 3.01 µM in test [9] and 6.59 µM in test [10].
In the case of `COC(=O)C1=COC(C)C2CN3CCc4c([nH]c5cc(OC)c(OC)cc45)C3CC12` (stereo not drawn), the GI50 was > 100 µM and 18.5 µM in test [1]; > 100 µM and 36.4 µM in [5]; 89.4 µM and 34.3 µM in test [6]. Further, the TGI in test [1] is > 100 µM and 61.6 µM; in [2] it was > 100 µM; in test [3], > 100 µM; in [4], > 100 µM; in [5], > 100 µM; in test [6] it was > 100 µM. Besides, the TGI in test [7] was 85.8 µM; in [8], > 100 µM; in [9], > 100 µM; in test [10] it was > 100 µM.
In the case of `O=[N+]([O-])c1ccc(C2CC(c3ccccc3)=Nc3ccccc3S2)cc1` (stereo not drawn), the GI50 was > 100 µM in [1]; 5.15 µM in [2]; 24.5 µM in test [3]; 19.1 µM in [4]; 1.81 µM in test [5]; 21.4 µM in test [6]. Besides, the GI50 in test [7], in [8], in [9] and in test [10] was > 100 µM throughout. Further, the TGI in [1] is > 100 µM; in [2], > 100 µM; in [3], > 100 µM; in test [4], > 100 µM; in test [5] it was 6.72 µM; in test [6], > 100 µM. The TGI in [7], in test [8], in [9] and in [10] was > 100 µM each time.
`Cc1ccc(-c2cc3c4c(nc5ccccc53)C(=O)c3cccnc3-c4n2)cc1`: the GI50 was 17.4 µM in test [1]; 11.9 µM in [2]; 26.5 µM in test [3]; 18.3 µM in [4]; 1.85 µM in test [5]; 15.6 µM in [6]. The GI50 was 9.58 µM in test [7], 13.2 µM in [8], 26.4 µM in test [9] and 6.01 µM in test [10]. Also, the TGI was 41 µM in [1]; 24.5 µM in [2]; > 100 µM in test [3]; 43.8 µM in test [4]; 6.31 µM in test [5]; 73.8 µM in test [6]. Besides, the TGI in [7] was > 100 µM; in [8], 60.9 µM; in test [9] it was 97.3 µM; in test [10], 20.8 µM.
Regarding `CCOC(=O)Nc1nc2ccc(Br)cc2s1`, the GI50 in [1], in test [2], in [3], in test [4], in test [5] and in [6] was > 50 µM each time. For the same compound, the GI50 in [7], in test [8], in test [9] and in test [10] was > 50 µM throughout. Moreover, the TGI in [1], in test [2], in test [3], in [4], in [5] and in test [6] was > 50 µM throughout. The TGI in [7], in test [8], in [9] and in test [10] was > 50 µM each time.
For the compound `CC1(C)CC[C@]2(C(=O)O)CC[C@]3(C)C(=CC[C@@H]4[C@@]5(C)C[C@H](O)[C@H](O)[C@@](C)(C(=O)O)[C@@H]5CC[C@]43C)[C@@H]2C1`, the TGI in test [1], in test [2], in [3], in test [4], in test [5] and in test [6] was > 100 µM throughout. For the same compound, the TGI in test [7], in test [8], in test [9] and in test [10] was > 100 µM each time.
Regarding `S=C(NCCNC(=S)[S][Sn]([c]1ccccc1)([c]1ccccc1)[c]1ccccc1)[S][Sn]([c]1ccccc1)([c]1ccccc1)[c]1ccccc1`, the GI50 is 0.0799 µM in test [1]; 0.0181 µM in [2]; 0.0102 µM in test [3]; 0.0564 µM in [4]; 0.0133 µM in test [5]; 0.0212 µM in test [6]. The GI50 in test [7] was 0.01 µM; in [8], 0.0638 µM; in [9], 0.0612 µM; in test [10], 0.0522 µM. The TGI in test [1] was 0.183 µM; in test [2], 0.0542 µM; in test [3], 0.0493 µM; in test [4], 0.461 µM; in test [5], 0.0553 µM; in test [6], 0.0805 µM. The TGI turned out to be 0.0206 µM in [7], 0.139 µM in [8], 0.126 µM in [9] and 0.117 µM in test [10].
`CCc1nc(N)nc(N)c1-c1ccc2nnn(O)c2c1`: the TGI in test [1], in test [2], in test [3], in test [4], in test [5] and in test [6] was > 100 µM throughout. The TGI in [7], in test [8], in test [9] and in [10] was > 100 µM each time.
For `Clc1ccc(Nc2ccnc(N3CCN(c4ccnc5cc(Cl)ccc45)CC3)n2)cc1`, the GI50 is 2.13 µM in test [1]; 4.8 µM in test [2]; 0.935 µM in test [3]; 1.75 µM in [4]; 1.96 µM in test [5]; 2.56 µM in [6]. Besides, the GI50 was 2.35 µM in test [7], 3.68 µM in [8], 3.43 µM in test [9] and 3.05 µM in test [10]. Moreover, the TGI is 6.92 µM in test [1]; 31.6 µM in test [2]; 4.18 µM in test [3]; 7.79 µM in [4]; 6.87 µM in test [5]; > 100 µM in [6]. Moreover, the TGI was found to be 7.65 µM in test [7], 74.5 µM in [8], 8.5 µM in [9] and 13.5 µM in [10].
For `COc1ccc2c(c1)oc(=O)c1cc(OC)ccc12`, the GI50 in [1], in test [2], in [3], in test [4], in [5] and in test [6] was > 100 µM throughout. The GI50 in test [7], in test [8], in test [9] and in test [10] was > 100 µM throughout. Further, the TGI in [1], in test [2], in test [3], in test [4], in [5] and in test [6] was > 100 µM throughout. For the same compound, the TGI in test [7], in [8], in [9] and in [10] was > 100 µM throughout.

Source of the values: PubChem BioAssay (NCI).
